In PubChem BioAssay (NCI):
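The compound was tested at five concentrations on cells cultured in 96-well plates, with a 48-hour exposure period. Here, GI50 denotes the concentration required for 50% inhibition of growth. Definition used: TGI = concentration required for complete inhibition of growth.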

Key:
Assay in all cases: DTP human tumour cell line panel, 48 h
[1] = test system: HCC-2998 colon
[2] = test system: TK-10 renal
[3] = test system: EKVX NSCLC
[4] = test system: CCRF-CEM leukemia
[5] = test system: SN12C renal
[6] = test system: A549 NSCLC
[7] = test system: T-47D breast
[8] = test system: NCI/ADR-RES ovarian
[9] = test system: A498 renal
[10] = test system: HL-60(TB) leukemia
[11] = test system: MDA-MB-435
[12] = test system: RPMI-8226 leukemia
[13] = test system: SK-MEL-28 melanoma
[14] = test system: OVCAR-3 ovarian
[15] = test system: HS 578T breast
[16] = test system: HCT-15 colon
[17] = test system: PC-3 prostate
[18] = test system: MOLT-4 leukemia
[19] = test system: DU-145 prostate
[20] = test system: UACC-257 melanoma
[21] = test system: IGROV1 ovarian
[22] = test system: SK-OV-3 ovarian
[23] = test system: HOP-92 NSCLC
[24] = test system: M14 melanoma
[25] = test system: SR leukemia
[26] = test system: COLO 205 colon
[27] = test system: RXF 393 renal
[28] = test system: UACC-62 melanoma
[29] = test system: SF-539 CNS
[30] = test system: MDA-MB-231 breast
[31] = test system: BT-549 breast
[32] = test system: HOP-62 NSCLC
[33] = test system: HT29 colon
[34] = test system: MALME-3M melanoma
[35] = test system: OVCAR-5 ovarian
[36] = test system: KM12 colon
[37] = test system: HCT-116 colon
[38] = test system: UO-31 renal
[39] = test system: SNB-75 CNS
[40] = test system: SF-268 CNS
[41] = test system: NCI-H226 lung
[42] = test system: NCI-H522 lung
[43] = test system: OVCAR-8 ovarian
[44] = test system: CAKI-1 renal
[45] = test system: U251 CNS
[46] = test system: SK-MEL-5 melanoma
[47] = test system: ACHN renal
[48] = test system: 786-0 renal
[49] = test system: NCI-H460 lung
[50] = test system: K-562 leukemia
[51] = test system: LOX IMVI melanoma
[52] = test system: NCI-H23 lung
[53] = test system: SW-620 colon
[54] = test system: MCF7 breast
[55] = test system: SNB-19 CNS
[56] = test system: OVCAR-4 ovarian
[57] = test system: SK-MEL-2 melanoma
[58] = test system: SF-295 CNS

C#Cc1nc(C2=C(C)C(OC(C)=O)/C(=N/OC(C)=O)C2)cs1 (stereo not given)
GI50 [1]: 23.2 µM
TGI [1]: > 60.9 µM
GI50 [2]: 28.3 µM
TGI [2]: 56.9 µM
GI50 [3]: 12 µM
TGI [3]: > 61.4 µM
GI50 [4]: 0.188 µM
TGI [4]: 0.478 µM
GI50 [5]: 10.1 µM
TGI [5]: 25.4 µM
GI50 [6]: 5.39 µM
TGI [6]: > 100 µM
GI50 [7]: 7.49 µM
TGI [7]: 30.4 µM
GI50 [8]: 4.98 µM
TGI [8]: > 21.3 µM
GI50 [9]: 27.1 µM
TGI [9]: 50.4 µM
GI50 [10]: 0.587 µM
TGI [10]: 1.32 µM
GI50 [11]: 34.5 µM
TGI [11]: > 77.3 µM
GI50 [12]: 0.312 µM
TGI [12]: 1.17 µM
GI50 [13]: 17.1 µM
TGI [13]: 39 µM
GI50 [14]: 2.7 µM
TGI [14]: 7.6 µM
GI50 [15]: 8.7 µM
TGI [15]: > 25.9 µM
GI50 [16]: 6.21 µM
TGI [16]: 23.8 µM
GI50 [17]: 4.66 µM
TGI [17]: > 42.4 µM
GI50 [18]: 1.85 µM
TGI [18]: 4.69 µM
GI50 [19]: 11.5 µM
TGI [19]: > 70.3 µM
GI50 [20]: 17.6 µM
TGI [20]: 62.8 µM
GI50 [21]: 0.745 µM
TGI [21]: 2.09 µM
GI50 [22]: 6.16 µM
TGI [22]: 20.6 µM
GI50 [23]: 1.73 µM
TGI [23]: 3.24 µM
GI50 [24]: 21.3 µM
TGI [24]: > 80 µM
GI50 [25]: 0.228 µM
TGI [25]: 0.649 µM
GI50 [26]: 20.1 µM
TGI [26]: > 55.7 µM
GI50 [27]: 2.62 µM
TGI [27]: 6.03 µM
GI50 [28]: 13.7 µM
TGI [28]: 29.4 µM
GI50 [29]: 0.687 µM
TGI [29]: 1.87 µM
GI50 [30]: 4.62 µM
TGI [30]: > 20.6 µM
GI50 [31]: 5.65 µM
TGI [31]: 13 µM
GI50 [32]: 9.24 µM
TGI [32]: > 23.6 µM
GI50 [33]: 2.27 µM
TGI [33]: 6.67 µM
GI50 [34]: 1.81 µM
TGI [34]: 4.86 µM
GI50 [35]: 7.36 µM
TGI [35]: > 41.9 µM
GI50 [36]: 47.4 µM
TGI [36]: > 100 µM
GI50 [37]: 13.5 µM
TGI [37]: 30.4 µM
GI50 [38]: 0.164 µM
TGI [38]: 0.299 µM
TGI [39]: > 24.2 µM
GI50 [40]: 9.78 µM
TGI [40]: 45.7 µM
GI50 [41]: > 100 µM
TGI [41]: > 100 µM
GI50 [42]: 0.429 µM
TGI [42]: 0.937 µM
GI50 [43]: 9.99 µM
TGI [43]: 41.6 µM
GI50 [44]: 4.66 µM
TGI [44]: 11.7 µM
GI50 [45]: 4.58 µM
TGI [45]: > 26.9 µM
GI50 [46]: 19.5 µM
TGI [46]: 56.1 µM
GI50 [47]: 0.831 µM
TGI [47]: 7.17 µM
GI50 [48]: 1.83 µM
TGI [48]: 3.33 µM
GI50 [49]: > 28.5 µM
TGI [49]: > 100 µM
GI50 [50]: 11.8 µM
TGI [50]: 53.5 µM
GI50 [51]: 0.0198 µM
TGI [51]: 0.0453 µM
GI50 [52]: 1.26 µM
TGI [52]: 4.86 µM
GI50 [53]: 13.3 µM
TGI [53]: 30.4 µM
GI50 [54]: 6.75 µM
TGI [54]: > 76.6 µM
GI50 [55]: > 59.5 µM
TGI [55]: > 100 µM
GI50 [56]: 6.65 µM
TGI [56]: 22.1 µM
GI50 [57]: 27.6 µM
TGI [57]: > 69.7 µM
GI50 [58]: 1.84 µM
TGI [58]: 3.67 µM

COc1cc(/C=N/NC(=O)c2cn(C3CC3)c3c(OC)c(N4CC5CCCNC5C4)c(F)cc3c2=O)ccc1O (stereo not given)
GI50 [2]: 1.68 µM
TGI [2]: 3.1 µM
GI50 [5]: 1.83 µM
TGI [5]: 3.46 µM
GI50 [8]: 58.8 µM
TGI [8]: > 100 µM
GI50 [9]: 1.76 µM
TGI [9]: 3.18 µM
GI50 [12]: 1.88 µM
TGI [12]: 4.38 µM
GI50 [17]: 1.74 µM
TGI [17]: 3.28 µM
GI50 [18]: 2.3 µM
TGI [18]: 5.33 µM
GI50 [19]: 1.86 µM
TGI [19]: 3.31 µM
GI50 [23]: 1.66 µM
TGI [23]: 3.16 µM
GI50 [28]: 1.72 µM
TGI [28]: 3.28 µM
GI50 [29]: 1.73 µM
TGI [29]: 3.21 µM
GI50 [30]: 1.69 µM
TGI [30]: 3.22 µM
GI50 [33]: 1.83 µM
TGI [33]: 3.38 µM
GI50 [34]: 1.69 µM
TGI [34]: 3.21 µM
GI50 [35]: 1.65 µM
TGI [35]: 3.05 µM
GI50 [36]: 1.67 µM
TGI [36]: 3.11 µM
GI50 [38]: 1.53 µM
TGI [38]: 2.93 µM
GI50 [39]: 1.43 µM
TGI [39]: 2.81 µM
GI50 [42]: 1.79 µM
TGI [42]: 3.4 µM
GI50 [44]: 1.67 µM
TGI [44]: 3.12 µM
GI50 [46]: 17.6 µM
TGI [46]: 41.3 µM
GI50 [47]: 1.7 µM
TGI [47]: 3.09 µM
GI50 [49]: 1.87 µM
TGI [49]: 3.5 µM
GI50 [53]: 1.73 µM
TGI [53]: 3.27 µM
GI50 [57]: 1.85 µM
TGI [57]: 3.68 µM
